The values below come from patent EP0551434B1 (BOARD OF REGENTS THE UNIVERSITY OF TEXAS SYSTEM, priority 1990, dated 1992).

Where two headings read alike, the source gives them in different places.

For this test, the system named is MCF7. As to the kind of experiment: Inhibition of MCF7 breast tumor cell growth in vitro (72 hour exposure, MTT tetrazolium dye assay). It is filed as cell-based, human. As to the method:
The MCF7 cell line is a human tumor cell line. This cell line was cultured in MEM( (Eagles) media in a 5% C0^2 atmosphere with 10% fetal calf serum that had been washed twice with dextran coated charcoal to reduce endogenous estrogen levels. The media was supplemented with 1 mM sodium pyruvate and 100 µm non-essential amino acids. The cell line was screened routinely for myoplasma contamination using the GenProbe kit (Fisher). Cells were trypsinized and plated at a density of 5,000 cells/well in 96 well microtiter plates and allowed to attach and recover for 24 hours.
The media was removed by aspiration and replaced with filter sterilized drug (concentration from 10-^4 M to […]) in media. The cells were incubated for 72 hours and then stained using the MTT tetrazolium dye assay of Mosmann^36 except that after the media was removed, the blue formazan product was solubilized in 50 µl/well DMSO.

Where [1] appears, read: comparative compounds IV and VII, average of three experiments, read-out: IC50 Dose.
Where [2] appears, read: comparative compounds IV and VII, relative potency, tamoxifen = 100.
The mark [3] stands for this setting: Homo sapiens, MCF7, 72 h, Table 6, 72 hour exposure, average of three experiments, read-out: IC50 Dose.
[4] abbreviates: Homo sapiens, MCF7, text values b172, read-out: IC50 MCF7 cell inhibition (converted).
[5] abbreviates: Table 6, relative potency, IC50 ratio between tamoxifen and competitor, tamoxifen = 100.

`CCN(CC)CCOc1ccc(C(=C(CCF)c2ccccc2)c2ccccc2)cc1` (single isomer, unassigned) [Compound IV (Trans), N,N-diethyl-fluorotamoxifen] returned an RP of 82.
A word on the IC50: it is the concentration that gives 50% inhibition. Regarding Fluorotamoxifen [Compound VII (Trans)], under setting [1], the half-inhibitory concentration (IC50) came to 11.8 µM. In addition, under setting [2], the RP is listed as 93.
With `CCN(CC)CCOc1ccc(/C(=C(/CCCF)c2ccccc2)c2ccccc2)cc1` [Compound VI (trans)], the IC50 reads like this: under setting [3], 11.8 µM; under setting [4], 11.8 µM. Also, the RP under setting [5] is 93.
The compound `CCN(CC)CCOc1ccc(C(=C(CCF)c2ccccc2)c2ccccc2)cc1` (single isomer, unassigned) [Compound IV (Cis), N,N-diethyl-fluorotamoxifen] displayed an RP of 268.
Consider `CCN(CC)CCOc1ccc(/C(=C(\CCCF)c2ccccc2)c2ccccc2)cc1` [VI (Cis), N,N-diethyl-fluoromethyltamoxifen], for which the IC50 runs as follows: under setting [3], 4.5 µM; under setting [4], 4.5 µM. The RP under setting [5] is reported as 244.
For the compound Fluorotamoxifen [Compound VII (Cis)], under setting [1], the IC50 came out at 4.5 µM. The RP under setting [2] was determined as 224.
